From ChEMBL document CHEMBL1201862, “PubChem BioAssay data set” (2004)
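Growth conditions: 96-well plates. Treatment: test compound, 48 hours, 5 concentrations. Analysis: linear interpolation between bracketing concentrations; unreached endpoints set to highest concentration. Abbreviation: GI50, concentration required for 50% inhibition of growth.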 The source made the active and inactive calls. No stated cut-off is given here; in the data, active = GI50 up to about 1.1 µM and inactive = higher.

Experiments:
Assay in all cases: NCI tumour cell line growth inhibition, 48 h
EKVX = test system: EKVX
MDA-MB-231 = test system: MDA-MB-231
SNB-75 = test system: SNB-75
SK-MEL-5 = test system: SK-MEL-5
SF-539 = test system: SF-539
KM12 = test system: KM12
OVCAR-8 = test system: OVCAR-8
HOP-62 = test system: HOP-62
SNB-19 = test system: SNB-19
CCRF-CEM = test system: CCRF-CEM
U-251 = test system: U-251
SW-620 = test system: SW-620
SN12C = test system: SN12C
UACC-62 = test system: UACC-62
UO-31 = test system: UO-31
DU-145 = test system: DU-145
OVCAR-3 = test system: OVCAR-3
MDA-MB-435 = test system: MDA-MB-435
ACHN = test system: ACHN

Row | SMILES | GI50 (EKVX) | GI50 (MDA-MB-231) | GI50 (SNB-75) | GI50 (SK-MEL-5) | GI50 (SF-539) | GI50 (KM12) | GI50 (OVCAR-8) | GI50 (HOP-62) | GI50 (SNB-19) | GI50 (CCRF-CEM) | GI50 (U-251) | GI50 (SW-620) | GI50 (SN12C) | GI50 (UACC-62) | GI50 (UO-31) | GI50 (DU-145) | GI50 (OVCAR-3) | GI50 (MDA-MB-435) | GI50 (ACHN)
1 | CN(N=O)C(=O)NNC(=O)N(C)N=O | 29.2 µM (inactive) | > 100 µM (inactive) | > 100 µM (inactive) | 67.6 µM (inactive) | 49.1 µM (inactive) | > 100 µM (inactive) | 55.3 µM (inactive) | > 100 µM (inactive) | > 100 µM (inactive) | 31.7 µM (inactive) | 52.5 µM (inactive) | 36.2 µM (inactive) | > 100 µM (inactive) | 92.5 µM (inactive) | 83.9 µM (inactive) | > 100 µM (inactive) | > 100 µM (inactive) | > 100 µM (inactive) | > 100 µM (inactive)
2 | COc1cc2c(cc1OC)OC(c1c(OC)ccc(OC)c1O)CC2 (configuration not stated) | > 100 µM (inactive) | > 100 µM (inactive) | > 100 µM (inactive) | 76.2 µM (inactive) | 73.6 µM (inactive) | > 100 µM (inactive) | > 100 µM (inactive) | > 100 µM (inactive) | > 100 µM (inactive) | 22.9 µM (inactive) | > 100 µM (inactive) | > 100 µM (inactive) | – | > 100 µM (inactive) | > 100 µM (inactive) | > 100 µM (inactive) | 35.1 µM (inactive) | > 100 µM (inactive) | 68.7 µM (inactive)
3 | C[C@H](N)C(=O)Nc1ccc(-c2nc3ccccc3s2)cc1 | 11.8 µM (inactive) | 18.4 µM (inactive) | 18 µM (inactive) | 20.1 µM (inactive) | 36.9 µM (inactive) | 16.3 µM (inactive) | 25.6 µM (inactive) | 26.5 µM (inactive) | 22.4 µM (inactive) | 10.2 µM (inactive) | 16.9 µM (inactive) | 17.2 µM (inactive) | 24.8 µM (inactive) | 18.5 µM (inactive) | 12.3 µM (inactive) | 18.4 µM (inactive) | 18.3 µM (inactive) | 16.9 µM (inactive) | 17.4 µM (inactive)
4 | O=[N+]([O-])c1cccc(/C=N/NC2=CS(=O)(=O)C=C2)c1 | > 100 µM (inactive) | > 100 µM (inactive) | 91 µM (inactive) | > 100 µM (inactive) | > 100 µM (inactive) | > 100 µM (inactive) | > 100 µM (inactive) | > 100 µM (inactive) | > 100 µM (inactive) | > 100 µM (inactive) | > 100 µM (inactive) | > 100 µM (inactive) | > 100 µM (inactive) | > 100 µM (inactive) | > 100 µM (inactive) | > 100 µM (inactive) | > 100 µM (inactive) | > 100 µM (inactive) | > 100 µM (inactive)
5 | CSCCC(C(=O)O)N(C)C (configuration not stated) | > 100 µM (inactive) | > 100 µM (inactive) | > 100 µM (inactive) | > 100 µM (inactive) | > 100 µM (inactive) | > 100 µM (inactive) | > 100 µM (inactive) | > 100 µM (inactive) | > 100 µM (inactive) | > 100 µM (inactive) | > 100 µM (inactive) | > 100 µM (inactive) | > 100 µM (inactive) | > 100 µM (inactive) | > 100 µM (inactive) | > 100 µM (inactive) | > 100 µM (inactive) | > 100 µM (inactive) | > 100 µM (inactive)
6 | Cc1cccc(Nc2nc3ccccc3nc2NS(=O)(=O)c2ccccc2)c1 | 30.5 µM (inactive) | 39.5 µM (inactive) | 14.4 µM (inactive) | 19.4 µM (inactive) | 33.8 µM (inactive) | 20.3 µM (inactive) | 29.3 µM (inactive) | 27.5 µM (inactive) | 18.1 µM (inactive) | 18.2 µM (inactive) | 14.6 µM (inactive) | 29.6 µM (inactive) | 22.2 µM (inactive) | 25.6 µM (inactive) | 15.1 µM (inactive) | 44.3 µM (inactive) | 19 µM (inactive) | 46.6 µM (inactive) | 28.9 µM (inactive)
7 | COC(=O)/C=C(/C=C1/C(C#N)=C(N)N(c2ccc(Cl)cc2)C1(C)/C(=C/C(=O)OC)C(=O)OC)C(=O)OC (configuration not stated) | 46.1 µM (inactive) | 8.69 µM (inactive) | 20.5 µM (inactive) | – | > 100 µM (inactive) | – | 33.5 µM (inactive) | > 100 µM (inactive) | > 100 µM (inactive) | 27 µM (inactive) | 41.4 µM (inactive) | 32.7 µM (inactive) | 35.8 µM (inactive) | 19.6 µM (inactive) | 64.1 µM (inactive) | 60.3 µM (inactive) | 81.8 µM (inactive) | 52.4 µM (inactive) | 42.7 µM (inactive)
8 | NCCCN(CCCN)CCc1cn(C(=O)c2ccccc2)cn1 | 7.21 µM (inactive) | 14.2 µM (inactive) | 6.07 µM (inactive) | 7 µM (inactive) | 13.2 µM (inactive) | 7.82 µM (inactive) | 16.9 µM (inactive) | 7.74 µM (inactive) | 15.1 µM (inactive) | 2.17 µM (inactive) | 14.4 µM (inactive) | 10.2 µM (inactive) | 6.41 µM (inactive) | 8.57 µM (inactive) | – | 4.32 µM (inactive) | 2.69 µM (inactive) | 5.73 µM (inactive) | 6.5 µM (inactive)
9 | CNc1cc2oc(=O)cc(C)c2cc1C | 59.6 µM (inactive) | > 100 µM (inactive) | 85.3 µM (inactive) | 30.1 µM (inactive) | > 100 µM (inactive) | – | > 100 µM (inactive) | > 100 µM (inactive) | > 100 µM (inactive) | > 100 µM (inactive) | > 100 µM (inactive) | > 100 µM (inactive) | > 100 µM (inactive) | 72.6 µM (inactive) | – | > 100 µM (inactive) | > 100 µM (inactive) | 86.3 µM (inactive) | > 100 µM (inactive)
10 | CN1/C(=C/C=C/C=C/C=C2C(=O)c3ccccc3C2=O)C(C)(C)c2ccccc21 | 30.8 µM (inactive) | 10.3 µM (inactive) | 48.6 µM (inactive) | 18.5 µM (inactive) | 26.1 µM (inactive) | 76.9 µM (inactive) | 44 µM (inactive) | > 100 µM (inactive) | > 100 µM (inactive) | > 100 µM (inactive) | – | > 100 µM (inactive) | > 100 µM (inactive) | 17.7 µM (inactive) | 37.2 µM (inactive) | 43.4 µM (inactive) | 20 µM (inactive) | 54.5 µM (inactive) | 25.8 µM (inactive)
11 | CCCCCCCc1ccc(-c2nnc(/N=N/c3ccc(OCCCCC)cc3)s2)s1 | > 100 µM (inactive) | > 100 µM (inactive) | > 100 µM (inactive) | > 100 µM (inactive) | > 100 µM (inactive) | > 100 µM (inactive) | – | > 100 µM (inactive) | > 100 µM (inactive) | > 100 µM (inactive) | > 100 µM (inactive) | > 100 µM (inactive) | > 100 µM (inactive) | > 100 µM (inactive) | > 100 µM (inactive) | > 100 µM (inactive) | > 100 µM (inactive) | > 100 µM (inactive) | > 100 µM (inactive)
12 | Cc1c(-c2ccc(O)cc2)n(CCCCCCNCCOC(=O)NCCCc2ccc(N(CCCl)CCCl)cc2)c2ccc(O)cc12 | 3.05 µM (inactive) | 1.83 µM (inactive) | 1.98 µM (inactive) | 1.96 µM (inactive) | 1.64 µM (inactive) | 2.25 µM (inactive) | 1.38 µM (inactive) | 2.54 µM (inactive) | 13.2 µM (inactive) | 1.67 µM (inactive) | 3.07 µM (inactive) | 2.15 µM (inactive) | 2.4 µM (inactive) | 1.79 µM (inactive) | – | 1.83 µM (inactive) | 2.16 µM (inactive) | 1.69 µM (inactive) | 3.71 µM (inactive)
13 | Cc1nc2c(cc1OCc1ccccc1)C(=O)C1=C(C2=O)C2OC(=O)CC2OC1(C)C (configuration not stated) | 1.55 µM (inactive) | 0.43 µM (active) | 1.66 µM (inactive) | 1.18 µM (inactive) | 0.728 µM (active) | 0.531 µM (active) | 2.72 µM (inactive) | 1.52 µM (inactive) | 2.49 µM (inactive) | 0.17 µM (active) | 0.859 µM (active) | 0.322 µM (active) | 0.182 µM (active) | 0.174 µM (active) | 1.68 µM (inactive) | 1.71 µM (inactive) | – | 0.55 µM (active) | 0.619 µM (active)
14 | CCOc1cc(NC(C)=O)ccc1C(=O)NN1C(=O)C(Cl)C1c1ccco1 (configuration not stated) | 17.9 µM (inactive) | 16.6 µM (inactive) | 13.8 µM (inactive) | 13.3 µM (inactive) | 14.9 µM (inactive) | 18.5 µM (inactive) | 43.5 µM (inactive) | 17.9 µM (inactive) | 17 µM (inactive) | 4.58 µM (inactive) | – | 32.3 µM (inactive) | 14.5 µM (inactive) | 12.6 µM (inactive) | 2.86 µM (inactive) | 17.3 µM (inactive) | 16.9 µM (inactive) | 15 µM (inactive) | 15.7 µM (inactive)
15 | Cn1nc2n(c1=O)CCCN2 | > 100 µM (inactive) | > 100 µM (inactive) | > 100 µM (inactive) | > 100 µM (inactive) | > 100 µM (inactive) | > 100 µM (inactive) | > 100 µM (inactive) | > 100 µM (inactive) | > 100 µM (inactive) | > 100 µM (inactive) | > 100 µM (inactive) | > 100 µM (inactive) | > 100 µM (inactive) | – | – | > 100 µM (inactive) | > 100 µM (inactive) | > 100 µM (inactive) | > 100 µM (inactive)
